Results reported in US11078540B2, “Methods of diagnosing and treating cancer in patients having or developing resistance to a first cancer therapy” (DANA-FARBER CANCER INSTITUTE, INC., priority 2010, dated 2021).

Assays:
[1] = tested on: COT mRNA; test: Quantitative RT-PCR of COT mRNA in lesion-matched biopsies of PLX4032-treated metastatic melanoma patients; assay type: in vivo, human; settings: 3 patients with metastatic B-RAF^V600E melanoma, on-treatment vs pre-treatment biopsies
Excerpt: Biopsied tumor material consisted of discarded and de-identified tissue that was obtained with informed consent and characterized under protocol 02-017 (paired samples, Massachusetts General Hospital) and 07-087 (unpaired sample, Dana-Farber Cancer Institute). For paired specimens, ‘on-treatment’ samples were collected 10-14 days after initiation of PLX4032 treatment (Table 6).
(§1) mRNA was extracted from cell lines and fresh-frozen tumors using the RNeasy kit (Qiagen). Total mRNA was used for subsequent reverse transcription using the SuperScript III First-Strand Synthesis SuperMix (Invitrogen) for cell lines and unpaired tumor samples, and the SuperScript VILO cDNA synthesis kit (Invitrogen) for paired frozen tumor samples. 5 μl of the RT reaction was used for quantitative PCR using SYBR Green PCR Master Mix and gene-specific primers, in triplicate, using an ABI 7300 Real Time PCR System. Primers used for detection are as follows: […]

[2] = tested on: A375 cells; test: High throughput ORF screening: viability of A375 expressing the kinase ORF collection in 1 μM PLX4720 relative to untreated, normalized to MEK1DD (Cell Titer-Glo); assay type: cell-based, human
Protocol: A375 melanoma cells were plated in 384-well microtiter plates (500 cells per well). The following day, cells were spin-infected with the lentivirally-packaged kinase ORF library in the presence of 8 ug/ml polybrene. 48 hours post-infection, media was replaced with standard growth media (2 replicates), media containing 1 μM PLX4720 (2 replicates, 2 time points) or media containing 10 ug/ml blasticidin (2 replicates). After four days and 6 days, cell growth was assayed using Cell Titer-Glo (Promega) according to manufacturer instructions. The entire experiment was performed twice.
Raw luminescence values were imported into Microsoft Excel. Infection efficiency was determined by the percentage of duplicate-averaged raw luminescence in blasticidin selected cells relative to non-selected cells. ORFs with an infection efficiency of less than 0.70 were excluded from further analysis along with any ORF having a standard deviation of >15,000 raw luminescence units between duplicates. To identify ORFs whose expression affects proliferation, we compared the duplicate-averaged raw luminescence of individual ORFs against the average and standard deviation of all control-treated cells via the z-score, or standard score, below,
[formula] where x=average raw luminescence of a given ORF, μ=the mean raw luminescence of all ORFs and σ=the standard deviation of the raw luminescence of all wells. Any individual ORF with a z-score>+2 or <−2 was annotated as affecting proliferation and removed from final analysis. Differential proliferation was determined by the percentage of duplicate-averaged raw luminescence values in PLX4720 (1 μM) treated cells relative to untreated cells. […] MEK1^DD normalized differential proliferation for each individual ORF was averaged across two duplicate experiments, with two time points for each experiment (day 4 and day 6). A z-score was then generated, as described above for average MEK1^DD normalized differential proliferation. ORFs with a z-score of >2 were considered hits and were followed up in the secondary screen.

[3] = tested on: COT mRNA; test: Quantitative RT-PCR of COT mRNA in cell lines; assay type: cell-based, human; settings: COT-expressing A375 cells, 1 μM PLX4720, 18 h
Protocol: as §1

[4] = tested on: SKMEL28 cells; test: Secondary screen: PLX4720 GI50 in SKMEL28 expressing candidate resistance ORFs (WST-1); assay type: cell-based, human; settings: for GI50: Homo sapiens
Protocol: (§2) ORF-expressing lentivirus was added at a 1:10 dilution in the presence of 8 μg/ml polybrene, and centrifuged at 2250 RPM and 37° C. for 1 h. Following centrifugation, virus-containing media was changed to normal growth media and allowed to incubate for 18 h.

[5] = tested on: pERK1/2 (T202/Y204), pMEK1/2 (S217/221); test: Immunoblots and immunoprecipitations of MAPK pathway proteins in treated cells; assay type: cell-based, human; settings: for pERK expression, in combination with PLX4720: ectopic COT expression, 1 μM each, versus single-agent PLX4720 up to 10 μM
Protocol: Cells were washed twice with ice-cold PBS and lysed with 1% NP-40 buffer [150 mM NaCl, 50 mM Tris pH 7.5, 2 mM EDTA pH 8, 25 mM NaF and 1% NP-40] containing 2× protease inhibitors (Roche) and 1× Phosphatase Inhibitor Cocktails I and II (CalBioChem). Lysates were quantified (Bradford assay), normalized, reduced, denatured (95° C.) and resolved by SDS gel electrophoresis on 10% Tris/Glycine gels (Invitrogen). Protein was transferred to PVDF membranes and probed with primary antibodies recognizing pERK1/2 (T202/Y204), pMEK1/2 (S217/221), MEK1/2, MEK1, MEK2, C-RAF (rabbit host), pC-RAF (pS338) (Cell Signaling Technology; 1:1,000), V5-HRP (Invitrogen; (1:5,000), COT (1:500), B-RAF (1:2,000), Actin (1:1,000), Actin-HRP (1:1,000; Santa Cruz)), C-RAF (mouse host; 1:1,000; BD Transduction Labs), Vinculin (Sigma; 1:20,000), AXL (1:500; R&D Systems). After incubation with the appropriate secondary antibody (anti-rabbit, anti-mouse IgG, HRP-linked; 1:1,000 dilution, Cell Signaling Technology or anti-goat IgG, HRP-linked; 1:1,000 dilution; Santa Cruz), proteins were detected using chemiluminescence (Pierce). Immunoprecipitations were performed overnight at 4° C. in 1% NP-40 lysis buffer, as described above, at a concentration of 1 μg/μl total protein using an antibody recognizing C-RAF (1:50; Cell Signaling Technology). Antibody: antigen complexes were bound to Protein A agarose (25 μL, 50% slurry; Pierce) for 2 hrs. at 4° C. Beads were centrifuged and washed three times in lysis buffer and eluted and denatured (95° C.) in 2× reduced sample buffer (Invitrogen). Immunoblots were performed as above. Phospho-protein quantification was performed using NIH Image J.

[6] = tested on: A375 cells; test: Secondary screen: PLX4720 GI50 in A375 expressing candidate resistance ORFs (WST-1); assay type: cell-based, human; settings: for GI50: Homo sapiens
Protocol: as §2

[7] = tested on: B-RAF^V600E cell lines; test: Pharmacologic growth inhibition assays (WST1 viability, GI50, single-dose studies); assay type: cell-based, human; settings: for cell growth, in combination with PLX4720: ectopic COT expression, 1 μM each, versus single-agent PLX4720 up to 10 μM
Protocol: Cultured cells were seeded into 96-well plates (3,000 cells per well) for all melanoma cell lines; 1,500 cells were seeded for A375. Twenty-four hours after seeding, serial dilutions of the relevant compound were prepared in DMSO added to cells, yielding final drug concentrations ranging from 100 μM to […], with the final volume of DMSO not exceeding 1%. Cells were incubated for 96 h following addition of drug. Cell viability was measured using the WST1 viability assay (Roche). Viability was calculated as a percentage of control (untreated cells) after background subtraction. A minimum of six replicates were performed for each cell line and drug combination. Data from growth-inhibition assays were modeled using a nonlinear regression curve fit with a sigmoid dose-response. […] Sigmoid-response curves that crossed the 50% inhibition point at or above 10 μM have GI50 values annotated as >10 μM. For single-dose studies, the identical protocol was followed, using a single dose of indicated drug (1 μM unless otherwise noted).

[8] = biological target: T1, COT (Homo sapiens, UniProt P41279); test: Inhibition of COT kinase activity in RPMI-7951 cells (MEK/ERK phosphorylation immunoblot); assay type: cell-based; settings: 1 h treatment
T1 construct: endogenous in cells; host or cells: RPMI-7951 (ATCC), MAP3K8/COT-amplified, B-RAF V600E melanoma line
Protocol: Cells were washed twice with ice-cold PBS and lysed with 1% NP-40 buffer [150 mM NaCl, 50 mM Tris pH 7.5, 2 mM EDTA pH 8, 25 mM NaF and 1% NP-40] containing 2× protease inhibitors (Roche) and 1× Phosphatase Inhibitor Cocktails I and II (CalBioChem). Lysates were quantified (Bradford assay), normalized, reduced, denatured (95° C.) and resolved by SDS gel electrophoresis on 10% Tris/Glycine gels (Invitrogen). Protein was transferred to PVDF membranes and probed with primary antibodies recognizing pERK1/2 (T202/Y204), pMEK1/2 (S217/221), MEK1/2, MEK1, MEK2, C-RAF (rabbit host), pC-RAF (pS338) (Cell Signaling Technology; 1:1,000), V5-HRP (Invitrogen; (1:5,000), COT (1:500), B-RAF (1:2,000), Actin (1:1,000), Actin-HRP (1:1,000; Santa Cruz)), C-RAF (mouse host; 1:1,000; BD Transduction Labs), Vinculin (Sigma; 1:20,000), AXL (1:500; R&D Systems). After incubation with the appropriate secondary antibody (anti-rabbit, anti-mouse IgG, HRP-linked; 1:1,000 dilution, Cell Signaling Technology or anti-goat IgG, HRP-linked; 1:1,000 dilution; Santa Cruz), proteins were detected using chemiluminescence (Pierce). […] Immunoblots were performed as above. Phospho-protein quantification was performed using NIH Image J.
Adherent RPMI-7951 cells were washed twice with 1×PBS and incubated overnight in serum-free growth media.

## CCCS(=O)(=O)Nc1ccc(F)c(C(=O)c2c[nH]c3ncc(-c4ccc(Cl)cc4)cc23)c1F [PLX4032]
[1]
  COT mRNA expression concurrent with treatment: increased COT mRNA expression

## CCL4
[2]; A375 cells expressing the named ORF, relative to mean of all ORFs (44.26%, SD 7.19%)
  Z-SCORE of average differential proliferation (1 μM PLX4720/control): −0.13
[2]; A375 cells expressing the named kinase-related ORF, 1 μM PLX4720 vs untreated control, normalized to MEK DD
  AVERAGE differential proliferation (1 μM PLX4720/control), relative to MEK DD: 43.30%

## CCCS(=O)(=O)Nc1ccc(F)c(C(=O)c2c[nH]c3ncc(Cl)cc23)c1F [PLX4720]
[3]
  ectopic COT mRNA levels: without affecting
[4]; SK-MEL-28, SKMEL28, Mock control
  GI50: 529 nM
[4]; SK-MEL-28, SKMEL28 expressing AXL ORF
  GI50: 1180 nM
[4]; SK-MEL-28, SKMEL28 expressing CRKL ORF
  GI50: 9700 nM
[4]; SK-MEL-28, SKMEL28 expressing ERBB2 ORF
  GI50: 1000 nM
[4]; SK-MEL-28, SKMEL28 expressing FGR ORF
  GI50: 5000 nM
[4]; SK-MEL-28, SKMEL28 expressing MAP3K8 ORF
  GI50: > 100000 nM
[4]; SK-MEL-28, SKMEL28 expressing MEK1, (−) control
  GI50: 1000 nM
[4]; SK-MEL-28, SKMEL28 expressing MEK DD, (+) control
  GI50: 8290 nM
[4]; SK-MEL-28, SKMEL28 expressing PAK3 ORF
  GI50: 904 nM
[4]; SK-MEL-28, SKMEL28 expressing PRKCE ORF
  GI50: 1910 nM
[4]; SK-MEL-28, SKMEL28 expressing PRKCH ORF
  GI50: 2260 nM
[4]; SK-MEL-28, SKMEL28 expressing RAF1 ORF
  GI50: ≥ 10000 nM
[4]; SKMEL28, Mock control, relative to MEK1
  Fold Change GI50: 1.89 fold
[4]; SKMEL28 expressing AXL ORF, relative to MEK1
  Fold Change GI50: 1.18 fold
[4]; SKMEL28 expressing CRKL ORF, relative to MEK1
  Fold Change GI50: 9.7 fold
[4]; SKMEL28 expressing ERBB2 ORF, relative to MEK1
  Fold Change GI50: 1 fold
[4]; SKMEL28 expressing FGR ORF, relative to MEK1
  Fold Change GI50: 5 fold
[4]; SKMEL28 expressing MAP3K8 ORF, relative to MEK1
  Fold Change GI50: ~100 fold
[4]; SKMEL28 expressing MEK1, (−) control
  Fold Change GI50: 1 fold
[4]; SKMEL28 expressing MEK DD, (+) control, relative to MEK1
  Fold Change GI50: 8.29 fold
[4]; SKMEL28 expressing PAK3 ORF, relative to MEK1
  Fold Change GI50: 0.9041 fold
[4]; SKMEL28 expressing PRKCE ORF, relative to MEK1
  Fold Change GI50: 1.91 fold
[4]; SKMEL28 expressing PRKCH ORF, relative to MEK1
  Fold Change GI50: 2.26 fold
[4]; SKMEL28 expressing RAF1 ORF, relative to MEK1
  Fold Change GI50: ≥10 fold
[5]; A375 cells, immunoprecipitated C-RAF, 1 μM PLX4720, 18 hr
  endogenous C-RAF:B-RAF heterodimers: measurable and inducible
[5]; COT-expressing A375 cells
  COT protein: dose-dependent increase
[5]; OUMS-23, RPMI-7951 and M307
  ERK phosphorylation in the context of B-RAF inhibition: sustained ERK phosphorylation
[5]; OUMS-23, across a dose range of PLX4720
  phosphorylation of ERK/MEK: constitutive phosphorylation
[6]; A375, Mock control, relative to MEK1
  Fold Change GI50: 0.91 fold
[6]; A375 expressing AXL ORF, relative to MEK1
  Fold Change GI50: 5.98 fold
[6]; A375 expressing CRKL ORF, relative to MEK1
  Fold Change GI50: 59.8 fold
[6]; A375 expressing ERBB2 ORF, relative to MEK1
  Fold Change GI50: 7.95 fold
[6]; A375 expressing FGR ORF, relative to MEK1
  Fold Change GI50: 59.8 fold
[6]; A375 expressing MAP3K8 ORF, relative to MEK1
  Fold Change GI50: 598 fold
[6]; A375 expressing MEK1, (−) control
  Fold Change GI50: 1 fold
[6]; A375 expressing MEK DD, (+) control, relative to MEK1
  Fold Change GI50: 28 fold
[6]; A375 expressing PAK3 ORF, relative to MEK1
  Fold Change GI50: 2.95 fold
[6]; A375 expressing PRKCE ORF, relative to MEK1
  Fold Change GI50: 26.4 fold
[6]; A375 expressing PRKCH ORF, relative to MEK1
  Fold Change GI50: 24.7 fold
[6]; A375 expressing RAF1 ORF, relative to MEK1
  Fold Change GI50: 598 fold
[6]; A-375, A375, Mock control
  GI50: 153 nM
[6]; A-375, A375 expressing AXL ORF
  GI50: 1000 nM
[6]; A-375, A375 expressing CRKL ORF
  GI50: > 10000 nM
[6]; A-375, A375 expressing ERBB2 ORF
  GI50: 1330 nM
[6]; A-375, A375 expressing FGR ORF
  GI50: > 10000 nM
[6]; A-375, A375 expressing MAP3K8 ORF
  GI50: > 100000 nM
[6]; A-375, A375 expressing MEK1, (−) control
  GI50: 167 nM
[6]; A-375, A375 expressing MEK DD, (+) control
  GI50: 4800 nM
[6]; A-375, A375 expressing PAK3 ORF
  GI50: 493 nM
[6]; A-375, A375 expressing PRKCE ORF
  GI50: 4410 nM
[6]; A-375, A375 expressing PRKCH ORF
  GI50: 4140 nM
[6]; A-375, A375 expressing RAF1 ORF
  GI50: ≥ 100000 nM
[6]; MAP3K8 (COT/Tpl2) and RAF1 (C-RAF) ORFs, in A375 and SKMEL28
  shift of the PLX4720 GI50: 10-600 fold
[2]; Homo sapiens, A-375, A375 expressing kinase ORF collection, 1 μM PLX4720, read-out: relative viability, mean of all ORFs, normalized to MEK1DD
  viability at 1 µM: 44.3%
[7]; Homo sapiens, OUMS-23, RPMI-7951 and M307 (COT-expressing B-RAF^V600E cell lines)
  GI50: 8000 to 10000 nM

## O=C(NOCC1CC1)c1ccc(F)c(F)c1Nc1ccc(I)cc1Cl [CI-1040]
[5]; OUMS-23 and RPMI-7951, 1 μM CI-1040
  ERK phosphorylation: sustained ERK phosphorylation
[5]
  pERK expression, in combination with PLX4720: more effectively than did single-agent PLX4720
[7]; A375 and SKMEL28 cells ectopically expressing COT
  sensitivity to MEK inhibitor with ectopic COT expression: decreased sensitivity
[7]; B-RAF^V600E cell lines
  sensitivity of cell lines with aberrant MAP3K8/COT copy number/expression: insensitive
[7]; OUMS-23 and RPMI-7951 cell lines
  sensitivity to MEK inhibition (growth): refractory
[7]
  cell growth, in combination with PLX4720: more effectively than did single-agent PLX4720

## CN(c1cccnc1)c1cc2c(Nc3ccc(F)c(Cl)c3)c(C#N)cnc2cn1 [small molecule COT kinase inhibitor, 4-(3-Chloro-4-fluorophenylamino)-6-(pyridin-3-yl-methylamino)-3-cyano-[1,7]-naphthyridine]
[8]
  MEK and ERK phosphorylation: dose-dependent suppression

## Cn1cnc2c(F)c(Nc3ccc(Br)cc3Cl)c(C(=O)NOCCO)cc21 [AZD6244]
[5]
  pERK expression, in combination with PLX4720: more effectively than did single-agent PLX4720
[7]
  cell growth, in combination with PLX4720: more effectively than did single-agent PLX4720
